Measurements from paper PMC3479967 (Evidence-based Complementary and Alternative Medicine : eCAM, 2012).

Target: T1, UGT1A3 (Homo sapiens, UniProt P35503)
T1 sequence (P35503 29-534): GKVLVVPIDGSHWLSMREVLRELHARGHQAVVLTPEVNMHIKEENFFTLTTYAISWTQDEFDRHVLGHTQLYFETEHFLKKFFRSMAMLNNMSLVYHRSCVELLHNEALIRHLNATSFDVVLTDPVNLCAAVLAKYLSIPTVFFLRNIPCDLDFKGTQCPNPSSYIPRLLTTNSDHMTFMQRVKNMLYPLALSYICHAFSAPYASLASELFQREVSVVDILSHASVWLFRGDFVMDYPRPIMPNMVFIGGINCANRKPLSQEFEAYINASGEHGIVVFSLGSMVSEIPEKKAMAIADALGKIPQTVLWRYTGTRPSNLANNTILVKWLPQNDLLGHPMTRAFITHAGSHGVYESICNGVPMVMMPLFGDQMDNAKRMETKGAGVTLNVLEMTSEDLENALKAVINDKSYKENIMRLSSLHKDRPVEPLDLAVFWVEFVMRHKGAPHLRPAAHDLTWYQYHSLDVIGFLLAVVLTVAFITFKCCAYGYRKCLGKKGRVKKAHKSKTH
Assay: Inhibition of recombinant UGT1A3 activity (4-MU glucuronidation)
Method: A panel of recombinant human UGT supersomes (UGT1A1, UGT1A3, UGT1A4, UGT1A6, UGT1A7, UGT1A8, UGT1A9, UGT1A10, UGT2B4, UGT2B7, UGT2B15, and UGT2B17) expressed in baculovirus-infected insect cells were purchased from BD Gentest Corp. (Woburn, MA, USA).
4-MU, a nonselective substrate of UGTs, was used as probe substrate for all UGTs except UGT1A4. Incubations with each individual enzyme were conducted using conditions previously described. There was a 5 min preincubation step at 37°C before the reaction was started by addition of UDPGA. The incubation mixtures were then centrifuged at 20,500 ×g for 15 min to obtain the supernatant. Aliquots (20 μL) were then analyzed by HPLC. The HPLC system (SHIMADZU, Kyoto, Japan) consisted of an SCL-10A system controller, two LC-10AT pumps, a SIL-10A auto injector, and a SPD-10AVP UV detector. […] The mobile phase consisted of 10 mM KH2PO4, pH 2.7 (A) and acetonitrile (B). The following gradient was applied at a flow rate of 1 mL/min: 0–4 min 80% A and 20% B, 4.1–8 min 50% A and 50% B, 8.1–12 min, 30% A and 70% B. All experiments were performed in two independent experiments in duplicate.
A typical incubation mixture contained recombinant human UGTs, 5 mM MgCl2, 5 mM UDPGA, 50 μg/mg protein alamethicin, 50 mM Tris-HCl buffer (pH 7.4), and various probe substrates of UGTs in the absence or presence of different concentrations of inhibitors. […] The final concentration of DMSO in the incubation system was 1% (v/v). […] Known UGT inhibitors were used as positive controls: diclofenac for UGT1A1, UGT1A6, UGT1A7, and UGT1A9; androsterone for UGT1A3, UGT2B7, and UGT2B15, phenylbutazone for UGT1A8 and UGT1A10, and hecogenin for UGT1A4, respectively. There is no positive control reported available for UGT2B4 and UGT2B17. The negative controls are the incubation without UDPGA. […] The final concentration of DMSO in the incubation system was 1% (v/v). […] There was a 5 min preincubation step at 37°C before the reaction was started by the addition of UDPGA. Incubation times were 120 min for UGT1A1, UGT1A10, UGT2B4, UGT2B15, and UGT2B17, 75 min for UGT1A3, and 30 min for UGT1A4, UGT1A6, UGT1A7, UGT1A8, and UGT1A9. The reactions were quenched by adding 100 μL acetonitrile and internal standard. The incubation mixtures were then centrifuged at 20,500 ×g for 15 min to obtain the supernatant. An aliquot of the supernatant was used for HPLC analysis as described above. All experiments were performed in two independent experiments in duplicate.
Inhibition data from experiments were graphically represented by Dixon plots. K i values were calculated by nonlinear regression using the equations for competitive inhibition (1), noncompetitive inhibition (2), or mixed inhibition (3), [22] […] The type of inhibition was determined from the enzyme inhibition models. […]

IC50 [µM]	Structure (SMILES)	Ki [µM]
> 100	COc1ccc(-c2oc3c(CC=C(C)C)c(O)cc(O)c3c(=O)c2O)cc1 [Icaritin]	–
> 100	COc1ccc(-c2oc3c(CC=C(C)C)c(O[C@@H]4O[C@H](CO)[C@@H](O)[C@H](O)[C@H]4O)cc(O)c3c(=O)c2O)cc1 [Icariside I]	–

Structure (SMILES)	IC50 [µM]	Ki [µM]
COc1ccc(-c2oc3c(CC=C(C)C)c(O[C@@H]4O[C@H](CO)[C@@H](O)[C@H](O)[C@H]4O)cc(O)c3c(=O)c2O[C@@H]2O[C@@H](C)[C@H](O)[C@@H](O)[C@H]2O)cc1 [Icariin]	12.4 ± 0.1	8 ± 1.4
